Patent US20170066801A1, “ALPHA3BETA HYDROGEN BOND SURROGATE MACROCYCLES AS MODULATORS OF RAS” (NEW YORK UNIVERSITY, priority 2014, published 2017)

Legend:
[1] = system: panel of six human cancer cell lines; experiment: Growth and viability of a panel of six human cancer cell lines; format: cell-based; conditions: single administration of 5 μM, six days
Method: Various indicated cell lines were plated at low density (˜500-1000 cells per well) in a 96-well format. 12 hours post-plating, media was supplemented with either PBS vehicle, or indicated dosage, and cells were allowed to grow for ˜5.5 days. Cells were subsequently fixed for 1 hour with a 3.7% formaldehyde solution in PBS, and stained with Syto-60 nucleic acid stain (MANUFACTURER) in solution (1:2000 Syto-60, 0.5% Triton X-100, 100 ug/mL RNAse-A, in PBS). Syto-60 stained cells were subjected to quantitative imaging in 96-well plates (Odyssey® Imager, LI-COR Biosciences; excitation: 652; emission: 678) with a 3.0 mm z-axis offset to the scan-head to get the cellular nuclei in the optimal focal plane for quantification. Absolute fluorescence intensity was normalized to the vehicle control for each respective cell line at each dose. Normalized values were visualized on a semilog plot, and data was subjected to non-linear sigmoidal dose-response to determine half-maximal effective concentration (EC50) using GraphPad Prism version 6.00 for OSX, (GraphPad Software, La Jolla Calif. USA, www.graphpad.com).
To investigate the functional consequence of inhibiting Ras activation in the context of oncogenic mutations, we examined the effect of α3β-HBSSOS on the growth and viability of cancer cells of different origins. We selected a panel of six human cancer cell lines derived from the pancreas, colon, and bladder, which harbor a variety of oncogenic proteins including mutant KRas (Table 3).
α3β-HBSSOS reduces cell viability in a dose dependent manner, with the effect spanning over four orders of magnitude. We divided the cell lines into two groups with respect to EC50 values (Table 3). […] We hypothesized that differential cellular uptake may account for the different potency of the peptides between the oncogenic and wild type RTK-Ras cell lines.

[2] = biological target: T1, wild type NRas (Homo sapiens, UniProt P01111); experiment: RBD-pulldown of GTP-loaded Ras in MIA PaCa-2 cells; format: cell-based; conditions: 48 hours
T1 construct: levels of GTP-loaded endogenous HRas, KRas, and NRas proteins; endogenous in cells; host or cells: MIA PaCa-2
T1 sequence (P01111 whole entry): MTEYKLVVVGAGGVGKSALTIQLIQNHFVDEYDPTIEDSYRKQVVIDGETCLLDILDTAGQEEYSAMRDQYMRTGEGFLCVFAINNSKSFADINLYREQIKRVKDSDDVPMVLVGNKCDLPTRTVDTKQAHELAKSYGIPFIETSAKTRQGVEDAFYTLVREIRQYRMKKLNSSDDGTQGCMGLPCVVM
Method: (§1) To determine the effect of α3β-HBSSOS on Sos-mediated Ras activation in cells we treated MIA PaCa-2 cells, which harbor oncogenic KRas, with α3β-HBSSOS, control peptides, or vehicle control for 48 hours. Utilizing the RBD-pulldown assay we determined the levels of GTP-loaded endogenous HRas, KRas, and NRas proteins. As expected, MIA PaCa-2 cells display GTP-loading of all isoforms at steady state when treated with the vehicle control (FIGS. 11A-B).

[3] = biological target: T2, wild type HRas (Homo sapiens, UniProt P01112); experiment: RBD-pulldown of GTP-loaded Ras in MIA PaCa-2 cells; format: cell-based; conditions: 48 hours
T2 construct: levels of GTP-loaded endogenous HRas, KRas, and NRas proteins; endogenous in cells; host or cells: MIA PaCa-2
Method: as §1

[4] = biological target: 6×His-tagged HRas WT 1-166 (UniProt P01112); experiment: in vitro pull-down: fluorescein-tagged peptide on 6×His-HRas 1-166 / Ni-NTA beads, in-gel fluorescence

Row | GTP-loading of wild type NRas [2] | GTP-loading of wild type HRas [3] | fold greater affinity than α-HBSSOS [4] | Molecule | effect on cell growth relative to vehicle control [1]
1 | – | – | – | CC[C@H](C)[C@H](NC(=O)CN1C/C=C\CCC(=O)N[C@@H](Cc2ccccc2)C(=O)N[C@@H](CCC(=O)O)C1=O)C(=O)N[C@@H](Cc1ccc(O)cc1)C(=O)N[C@@H](CCCNC(=N)N)C(=O)N[C@@H](CC(C)C)C(=O)N[C@@H](CCC(=O)O)C(=O)N[C@@H](CC(C)C)C(=O)N[C@@H](CC(C)C)C(=O)N[C@@H](CCCCN)C(=O)N[C@@H](C)C(=O)N[C@@H](CCC(=O)O)C(=O)N[C@@H](CCC(=O)O)C(=O)N[C@@H](C)C(=O)N[C@@H](CC(N)=O)C(N)=O [α-HBSSOS, reference compound] | no effect on cell growth
2 | not | not | – | ZAEG*iYRLeLLKaEAAA-NH2 [α3β-HBSMUT] | no effect on cell growth
3 | – | – | 50 fold | FEGIYRLELLKAEEANK (not fully specified; printed as ZFEG*iYRLeLLKaEEANK(Flu)-NH2: Z = N-terminal 5-hexenoic acid residue; G* (position 3) = bridged allylglycine residue (hydrogen bond surrogate macrocycle between Z and G3); lowercase i (position 4), e (position 8), a (position 12) = β3-residues; K17 carries fluorescein (Flu); C-terminal amide) [α3β-HBSSOS-Flu] | –
